# Measurements from US8211662B2, “Nitroreductase enzymatic substrates” (Biomerieux, priority 2007, dated 2012).
# Tests used:
# [1] = tested on: Candida glabrata NCPF 3943; assay: Nitroreductase detection on Columbia agar, colonies read under UV; type: cell-based; design: key to Intensity of fluorescence, Candida glabrata NCPF3943 / F: fluorescence (intensity), Candida glabrata NCPF 3943 / Intensity of the fluorescence, Candida glabrata NCPF 3943: − = no fluorescence detected; +/− = weak fluorescence; + = medium fluorescence; ++ = strong fluorescence; details: 100 mg/l in Columbia agar, 24 h 37° C., UV 360-365 nm
# Experimental: (§1) A mass of 40 mg of each substrate was dissolved in 4 ml of dimethylformamide (DMF). This solution was entirely taken up in 400 ml of Columbia agar autoclaved beforehand and kept molten at 50° C. The final concentration for each substrate was 100 mg/l.
# (§2) Each of the media was distributed into Petri dishes 90 mm in diameter, in a proportion of 20 ml per dish.
# (§3) 18 microorganism strains derived from collections and belonging to various species of bacteria and of yeasts were inoculated onto these media by semi-quantitative isolation of 10 μl of a suspension at 0.5 McFarland diluted to 1/20. The media were incubated for 24 hours at 37° C., then the colonies formed were examined visually under UV illumination at 360-365 nm.
# [2] = tested on: Acinetobacter baumanii ATCC 19606; assay: as above; type: cell-based; design: key to Intensity of fluorescence, Acinetobacter baumanii ATCC 19606 / Intensity of the fluorescence, Acinetobacter baumanii ATCC 19606: − = no fluorescence detected; +/− = weak fluorescence; + = medium fluorescence; ++ = strong fluorescence
# Experimental: as §1, §2, §3
# [3] = tested on: Morganella morganii 462403 (wild); assay: as above; type: cell-based; design: key to Intensity of fluorescence, Morganella morganii 462403 / F: fluorescence (intensity), Morganella morganii 462403 (wild) / Intensity of the fluorescence, Morganella morganii 462403 (wild): − = no fluorescence detected; +/− = weak fluorescence; + = medium fluorescence; ++ = strong fluorescence; details: 100 mg/l in Columbia agar, 24 h 37° C., UV 360-365 nm
# Experimental: as §1, §2, §3
# [4] = tested on: Salmonella typhimurium NCTC 74; assay: as above; type: cell-based; design: key to Intensity of fluorescence, Salmonella typhimurium NCTC 74 / F: fluorescence (intensity), Salmonella typhimurium NCTC 74 / Intensity of the fluorescence, Salmonella typhimurium NCTC 74: − = no fluorescence detected; +/− = weak fluorescence; + = medium fluorescence; ++ = strong fluorescence
# Experimental: as §1, §2, §3
# MRSA NCTC 11939 = assay: as above; type: cell-based, Staphylococcus aureus; design: key: − = no fluorescence detected; +/− = weak fluorescence; + = medium fluorescence; ++ = strong fluorescence; details: 100 mg/l in Columbia agar, 24 h 37° C., UV 360-365 nm
# Experimental: as §1, §2, §3
# Staph spp 12 strains = assay: Detection of various strains of S. aureus in the presence of substrates; type: cell-based
# [5] = tested on: S. aureus (including MRSA) 10 strains; assay: as above; type: cell-based, Staphylococcus aureus; details: for No. of strains detected, S. aureus (including MRSA): 10 strains
# Enterococcus 6 strains = assay: as above; type: cell-based
# S. epidermidis 2 strains = assay: as above; type: cell-based
# Experimental: as §1, §2
# 18 microorganism strains derived from collections and belonging to various species of bacteria and of yeasts were inoculated onto these media by semi-quantitative isolation of 10 μl of a suspension at 0.5 McFarland diluted to 1/20. […]
# [6] = tested on: Enterococcus faecalis NCTC 775; assay: Nitroreductase detection on Columbia agar, colonies read under UV; type: cell-based; design: key: − = no fluorescence detected; +/− = weak fluorescence; + = medium fluorescence; ++ = strong fluorescence; details: 100 mg/l in Columbia agar, 24 h 37° C., UV 360-365 nm
# Experimental: as §1, §2, §3
# [7] = tested on: Staphylococcus epidermidis NCTC 11047; assay: as above; type: cell-based; design: key: − = no fluorescence detected; +/− = weak fluorescence; + = medium fluorescence; ++ = strong fluorescence; details: 100 mg/l in Columbia agar, 24 h 37° C., UV 360-365 nm
# Experimental: as §1, §2, §3
# [8] = tested on: Pseudomonas aeruginosa NCTC 10662; assay: as above; type: cell-based; design: key: − = no fluorescence detected; +/− = weak fluorescence; + = medium fluorescence; ++ = strong fluorescence; details: 100 mg/l in Columbia agar, 24 h 37° C., UV 360-365 nm
# Experimental: as §1, §2, §3
# [9] = tested on: Candida albicans ATCC 90028; assay: as above; type: cell-based; design: key: − = no fluorescence detected; +/− = weak fluorescence; + = medium fluorescence; ++ = strong fluorescence; details: 100 mg/l in Columbia agar, 24 h 37° C., UV 360-365 nm
# Experimental: as §1, §2, §3
# [10] = tested on: Serratia marcescens NCTC 10211; assay: as above; type: cell-based; design: key: − = no fluorescence detected; +/− = weak fluorescence; + = medium fluorescence; ++ = strong fluorescence; details: 100 mg/l in Columbia agar, 24 h 37° C., UV 360-365 nm
# Experimental: as §1, §2, §3
# [11] = tested on: Providencia rettgeri NCTC 7475; assay: as above; type: cell-based; design: key: − = no fluorescence detected; +/− = weak fluorescence; + = medium fluorescence; ++ = strong fluorescence; details: Table 4; 100 mg/l in Columbia agar, 24 h 37° C., UV 360-365 nm
# Experimental: as §1, §2, §3
# [12] = tested on: Escherichia coli NCTC 10418; assay: as above; type: cell-based; design: key: − = no fluorescence detected; +/− = weak fluorescence; + = medium fluorescence; ++ = strong fluorescence; details: 100 mg/l in Columbia agar, 24 h 37° C., UV 360-365 nm
# Experimental: as §1, §2, §3
# [13] = tested on: Listeria monocytogenes NCTC 11994; assay: as above; type: cell-based; design: key: − = no fluorescence detected; +/− = weak fluorescence; + = medium fluorescence; ++ = strong fluorescence; details: 100 mg/l in Columbia agar, 24 h 37° C., UV 360-365 nm
# Experimental: as §1, §2, §3
# [14] = tested on: Streptococcus pyogenes NCTC 8306; assay: as above; type: cell-based; design: key: − = no fluorescence detected; +/− = weak fluorescence; + = medium fluorescence; ++ = strong fluorescence; details: 100 mg/l in Columbia agar, 24 h 37° C., UV 360-365 nm
# Experimental: as §1, §2, §3
# [15] = tested on: Citrobacter freundii 46262 (wild); assay: as above; type: cell-based; design: key: − = no fluorescence detected; +/− = weak fluorescence; + = medium fluorescence; ++ = strong fluorescence; details: Table 4; 100 mg/l in Columbia agar, 24 h 37° C., UV 360-365 nm
# Experimental: as §1, §2, §3
# [16] = tested on: Enterococcus faecium NCTC 7171; assay: as above; type: cell-based; design: key: − = no fluorescence detected; +/− = weak fluorescence; + = medium fluorescence; ++ = strong fluorescence; details: Table 4; 100 mg/l in Columbia agar, 24 h 37° C., UV 360-365 nm
# Experimental: as §1, §2, §3
# [17] = tested on: Enterobacter cloacae NCTC 11936; assay: as above; type: cell-based; design: key: − = no fluorescence detected; +/− = weak fluorescence; + = medium fluorescence; ++ = strong fluorescence; details: 100 mg/l in Columbia agar, 24 h 37° C., UV 360-365 nm
# Experimental: as §1, §2, §3
# [18] = tested on: Yersinia enterocolitica NCTC 11176; assay: as above; type: cell-based; design: key: − = no fluorescence detected; +/− = weak fluorescence; + = medium fluorescence; ++ = strong fluorescence; details: 100 mg/l in Columbia agar, 24 h 37° C., UV 360-365 nm
# Experimental: as §1, §2, §3
# [19] = tested on: Bacillus subtilis NCTC 9372; assay: as above; type: cell-based; design: key: − = no fluorescence detected; +/− = weak fluorescence; + = medium fluorescence; ++ = strong fluorescence; details: 100 mg/l in Columbia agar, 24 h 37° C., UV 360-365 nm
# Experimental: as §1, §2, §3
# [20] = tested on: Staphylococcus aureus NCTC 6571; assay: as above; type: cell-based; design: key: − = no fluorescence detected; +/− = weak fluorescence; + = medium fluorescence; ++ = strong fluorescence; details: 100 mg/l in Columbia agar, 24 h 37° C., UV 360-365 nm
# Experimental: as §1, §2, §3
# [21] = 100 mg/l in Columbia agar, 24 h 37° C., UV 360-365 nm
# [22] = Table 4, 100 mg/l in Columbia agar, 24 h 37° C., UV 360-365 nm
smiles,measurement,setting,value
O=[N+]([O-])c1ccc(F)cc1-c1nc2ccccc2s1 [Substrate 15],"Intensity of fluorescence, Candida glabrata NCPF3943",[1],−
same,"Intensity of the fluorescence, Candida glabrata NCPF 3943",[1]; Table 4,−
same,"Intensity of fluorescence, Acinetobacter baumanii ATCC 19606",[2]; [21],+
same,"Intensity of the fluorescence, Acinetobacter baumanii ATCC 19606",[2]; [22],+
same,Distinguishing Pseudomonas aeruginosa from Acinetobacter baumanii,[2]; table 2,make it possible to distinguish Pseudomonas aeruginosa from Acinetobacter baumanii
same,"Intensity of fluorescence, Morganella morganii 462403",[3],++
same,"Intensity of the fluorescence, Morganella morganii 462403 (wild)",[3]; Table 4,++
same,"Intensity of fluorescence, Salmonella typhimurium NCTC 74",[4]; [21],++
same,"Intensity of the fluorescence, Salmonella typhimurium NCTC 74",[4]; [22],++
same,Salmonella typhimurium result with the substrate,[4]; table 2,strongly positive
same,"Intensity of fluorescence, Staphylococcus aureus NCTC 11939",MRSA NCTC 11939,++
same,"Intensity of the fluorescence, MRSA NCTC 11939",MRSA NCTC 11939; Table 4,++
same,"No. of strains detected, Staph spp",Staph spp 12 strains; 24 h,12
same,"No. of strains detected, Staph spp",Staph spp 12 strains; 48 h,12
same,"Distinguishing or identifying Staphylococcus aureus strains, in particular MRSA, from most of the other Gram-positive bacterial strains",[5],make it possible to distinguish or identify the Staphylococcus aureus strains
same,"No. of strains detected, S. aureus (including MRSA)",[5]; 24 h,10
same,"No. of strains detected, S. aureus (including MRSA)",[5]; 48 h,10
same,"No. of strains detected, Enterococcus",Enterococcus 6 strains; 24 h,0
same,"No. of strains detected, Enterococcus",Enterococcus 6 strains; 48 h,1
same,"No. of strains detected, S. epidermidis",S. epidermidis 2 strains; 24 h,0
same,"No. of strains detected, S. epidermidis",S. epidermidis 2 strains; 48 h,2
same,"Intensity of fluorescence, Enterococcus faecalis NCTC 775",[6],−
same,"Intensity of the fluorescence, Enterococcus faecails NCTC 775",[6]; Table 4,−
same,"Intensity of fluorescence, Staphylococcus epidermidis NCTC 11047",[7],−
same,"Intensity of the fluorescence, Staphylococcus epidermidis NCTC 11047",[7]; Table 4,−
same,"Intensity of fluorescence, Pseudomonas aeruginosa NCTC 10662",[8],−
same,"Intensity of the fluorescence, Pseudomonas aeruginosa NCTC 10662",[8]; Table 4,+
same,"Intensity of fluorescence, Candida albicans ATCC 90028",[9],−
same,"Intensity of the fluorescence, Candida albicans ATCC 90028",[9]; Table 4,−
same,"Intensity of fluorescence, Serratia marcescens NCTC 10211",[10],++
same,"Intensity of the fluorescence, Serratia marcescens NCTC 10211",[10]; Table 4,++
same,"Intensity of the fluorescence, Providencia rettgeri NCTC 7475",[11],++
same,"Intensity of fluorescence, Escherichia coli NCTC 10418",[12],++
same,"Intensity of the fluorescence, Escherichia coli NCTC 10418",[12]; Table 4,++
same,"Intensity of fluorescence, Listeria monocytogenes NCTC 11994",[13],−
same,"Intensity of the fluorescence, Listeria monocytogenes NCTC 11994",[13]; Table 4,−
same,"Intensity of fluorescence, Streptococcus pyogenes NCTC 8306",[14],−
same,"Intensity of the fluorescence, Streptococcus pyogenes NCTC 8306",[14]; Table 4,−
same,"Intensity of the fluorescence, Citrobacter freundii 46262 (wild)",[15],++
same,"Intensity of the fluorescence, Enterococcus faecium NCTC 7171",[16],−
same,"Intensity of fluorescence, Enterobacter cloacae NCTC 11936",[17],++
same,"Intensity of the fluorescence, Enterobacter cloacae NCTC 11936",[17]; Table 4,++
same,"Intensity of fluorescence, Yersinia enterocolitica NCTC 11176",[18],−
same,"Intensity of the fluorescence, Yersinia enterocolitica NCTC 11176",[18]; Table 4,−
same,"Intensity of fluorescence, Bacillus subtilis NCTC 9372",[19],−
same,"Intensity of the fluorescence, Bacillus subtilis NCTC 9372",[19]; Table 4,−
same,"Intensity of fluorescence, Staphylococcus aureus NCTC 6571",[20],++
same,"Intensity of the fluorescence, Staphylococcus aureus NCTC 6571",[20]; Table 4,++
